Laboratory results from patent US20250250303A1 (THE TRUSTEES OF COLUMBIA UNIVERSITY IN THE CITY OF NEW YORK, priority 2022, published 2025).
Bridge positions count the residues as written; N and C are the ends. Peptide text beside a SMILES is read from it.

Experiments:
[1] = tested on: upstream MAPK pathway proteins (e.g., SOS1, SHP2); assay: Quantitative phosphoproteomics of skeletal muscle; format: in vivo, mice; conditions: compared to insulin
Experimental: FIG. 6A illustrates sequences of S597 and analogs. […] Liver (3 min) and skeletal muscle (5 min) were collected after injection. Quantification of data shown in Mean±SD. […] Two-tailed student t-test; *p<0.05; **p<0.01; ***p<0.001; ****p<0.0001 (PBS set as the control); ††p<0.01 and ††††p<0.0001. […] Compared to insulin-treated samples, blue and red sites indicate downregulation and upregulation of phosphorylation by S597, respectively.

IR = IR (Mus musculus, UniProt P15208); assay: Insulin receptor endocytosis in vivo (liver sections); parameters: from tissue; host or cells: liver of C57BL/6J mice; species or system mice
Chain of IR (P15208 28-748 limits assumed): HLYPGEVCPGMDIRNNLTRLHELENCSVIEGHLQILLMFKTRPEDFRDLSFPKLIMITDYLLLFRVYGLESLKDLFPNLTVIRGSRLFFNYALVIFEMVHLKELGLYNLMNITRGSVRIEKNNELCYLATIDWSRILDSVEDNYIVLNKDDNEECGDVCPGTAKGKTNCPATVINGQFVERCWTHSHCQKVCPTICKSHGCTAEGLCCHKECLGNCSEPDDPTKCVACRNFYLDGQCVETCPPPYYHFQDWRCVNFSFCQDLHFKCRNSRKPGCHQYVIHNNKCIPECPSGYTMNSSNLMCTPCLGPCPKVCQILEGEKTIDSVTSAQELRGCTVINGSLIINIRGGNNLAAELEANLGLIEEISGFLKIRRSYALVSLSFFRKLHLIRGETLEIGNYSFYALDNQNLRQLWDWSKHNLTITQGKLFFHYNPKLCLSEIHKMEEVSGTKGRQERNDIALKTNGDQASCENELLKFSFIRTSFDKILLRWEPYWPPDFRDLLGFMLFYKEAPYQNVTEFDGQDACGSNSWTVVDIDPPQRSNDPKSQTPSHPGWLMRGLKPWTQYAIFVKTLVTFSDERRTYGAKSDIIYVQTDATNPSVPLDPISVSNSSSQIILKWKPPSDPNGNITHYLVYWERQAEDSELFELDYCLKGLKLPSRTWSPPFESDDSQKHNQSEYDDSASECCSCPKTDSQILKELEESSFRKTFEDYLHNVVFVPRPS
Chain of IR (P15208 753-1372 partner limits assumed): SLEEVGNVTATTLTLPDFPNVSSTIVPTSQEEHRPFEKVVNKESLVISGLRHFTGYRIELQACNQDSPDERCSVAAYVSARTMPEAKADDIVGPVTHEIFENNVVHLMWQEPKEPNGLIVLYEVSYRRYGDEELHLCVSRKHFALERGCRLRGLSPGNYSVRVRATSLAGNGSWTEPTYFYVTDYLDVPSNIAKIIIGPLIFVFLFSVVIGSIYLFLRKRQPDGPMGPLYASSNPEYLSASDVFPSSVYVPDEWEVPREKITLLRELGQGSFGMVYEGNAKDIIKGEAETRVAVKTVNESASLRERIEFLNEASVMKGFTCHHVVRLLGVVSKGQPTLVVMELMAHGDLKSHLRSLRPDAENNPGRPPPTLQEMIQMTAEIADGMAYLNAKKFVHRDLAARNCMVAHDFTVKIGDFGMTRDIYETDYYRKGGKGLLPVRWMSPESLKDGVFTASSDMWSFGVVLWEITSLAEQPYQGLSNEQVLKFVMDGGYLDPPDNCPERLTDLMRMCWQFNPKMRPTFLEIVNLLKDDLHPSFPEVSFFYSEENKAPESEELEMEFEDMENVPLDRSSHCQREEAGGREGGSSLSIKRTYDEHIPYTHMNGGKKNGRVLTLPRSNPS
Experimental: For IR endocytosis assays, the livers were fixed in 10% Neutral Buffered Formalin (NBF) and embedded in paraffin blocks. Sections were deparaffinized, subjected to immunohistochemistry as described in the immunohistochemistry section and previous study.
The immunohistochemistry was performed as described earlier with some modifications. Mouse tissues were fixed in 10% NBF and embedded in paraffin blocks by the Molecular Pathology Core at Columbia University. The deparaffinized sections were subjected to antigen retrieval with 10 mM sodium citrate (pH 6.0), incubated with 0.3% H2O2, blocked with 3% bovine serum albumin (BSA), and then incubated with anti-IR antibodies (CT-3, Millipore, Cat. #MABS65, 1:100) in 3% BSA in PBS with 0.1% Triton X-100 (0.1% PBST) at 4° C. overnight. The slides were washed and incubated with secondary antibodies (Alexa Fluor 568 donkey anti-mouse, Invitrogen, Cat. #A10037, 1:200). The washed slides were stained with 4′,6′-diamidino-2-phenylindole (DAPI). Ten images were randomly taken under x60 magnification with a Leica Thunder Imager (Leica Microsystems Inc.). Images of sections were acquired as series of 0.2 μm stacks. The cell edges were defined with Image J as described earlier. The whole cell signal intensity (WC) and intracell cellular intensity (IC) were measured. The plasma membrane signal intensity (PM) was calculated by subtracting IC from WC. […]

IR F64A = target: T1, IR F64A (Homo sapiens, UniProt P06213, F91A); assay: IR activation assay in 293 FT cells, IR F64A mutant; format: cell-based; conditions: 10 nM for 10 min
T1 construct: expressed in transfected cells; host or cells: 293 FT cells
T1 sequence (P06213 28-1370 isoform P06213-2 F91A limits assumed): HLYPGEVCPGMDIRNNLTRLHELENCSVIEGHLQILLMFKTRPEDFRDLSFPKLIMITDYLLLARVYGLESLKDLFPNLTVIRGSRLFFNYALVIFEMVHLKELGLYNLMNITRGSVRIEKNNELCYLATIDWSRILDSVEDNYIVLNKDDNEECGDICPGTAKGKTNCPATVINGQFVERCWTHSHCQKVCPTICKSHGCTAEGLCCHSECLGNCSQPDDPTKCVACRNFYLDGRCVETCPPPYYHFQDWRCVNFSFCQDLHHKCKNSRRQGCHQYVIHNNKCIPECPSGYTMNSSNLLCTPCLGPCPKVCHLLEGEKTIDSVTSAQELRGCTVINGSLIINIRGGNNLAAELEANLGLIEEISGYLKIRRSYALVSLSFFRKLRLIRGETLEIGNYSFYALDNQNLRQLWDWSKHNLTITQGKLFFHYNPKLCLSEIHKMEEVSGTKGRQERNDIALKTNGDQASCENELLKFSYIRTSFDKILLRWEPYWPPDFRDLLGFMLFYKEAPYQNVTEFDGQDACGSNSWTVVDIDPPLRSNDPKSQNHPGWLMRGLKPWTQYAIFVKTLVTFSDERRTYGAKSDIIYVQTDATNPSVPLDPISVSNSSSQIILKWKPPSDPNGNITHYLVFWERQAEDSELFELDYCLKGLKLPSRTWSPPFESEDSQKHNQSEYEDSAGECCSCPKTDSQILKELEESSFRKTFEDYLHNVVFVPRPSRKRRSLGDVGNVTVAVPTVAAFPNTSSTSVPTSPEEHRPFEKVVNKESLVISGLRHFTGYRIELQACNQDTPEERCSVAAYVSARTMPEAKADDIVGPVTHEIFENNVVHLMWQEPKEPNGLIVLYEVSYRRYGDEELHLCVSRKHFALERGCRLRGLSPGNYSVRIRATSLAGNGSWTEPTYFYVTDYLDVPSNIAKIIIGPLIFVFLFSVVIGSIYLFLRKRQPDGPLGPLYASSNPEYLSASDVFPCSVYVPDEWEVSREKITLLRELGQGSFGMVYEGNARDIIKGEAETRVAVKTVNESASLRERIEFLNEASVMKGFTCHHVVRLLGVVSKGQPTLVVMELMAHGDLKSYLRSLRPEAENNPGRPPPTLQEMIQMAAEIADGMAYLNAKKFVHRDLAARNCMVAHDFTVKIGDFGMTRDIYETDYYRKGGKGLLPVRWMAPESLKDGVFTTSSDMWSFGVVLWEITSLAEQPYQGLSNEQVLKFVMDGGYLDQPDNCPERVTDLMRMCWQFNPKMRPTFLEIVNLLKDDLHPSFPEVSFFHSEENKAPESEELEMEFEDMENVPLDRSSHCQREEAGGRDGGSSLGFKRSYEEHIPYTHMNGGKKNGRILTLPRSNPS
T1 sequence (P06213 763-1382 partner limits assumed): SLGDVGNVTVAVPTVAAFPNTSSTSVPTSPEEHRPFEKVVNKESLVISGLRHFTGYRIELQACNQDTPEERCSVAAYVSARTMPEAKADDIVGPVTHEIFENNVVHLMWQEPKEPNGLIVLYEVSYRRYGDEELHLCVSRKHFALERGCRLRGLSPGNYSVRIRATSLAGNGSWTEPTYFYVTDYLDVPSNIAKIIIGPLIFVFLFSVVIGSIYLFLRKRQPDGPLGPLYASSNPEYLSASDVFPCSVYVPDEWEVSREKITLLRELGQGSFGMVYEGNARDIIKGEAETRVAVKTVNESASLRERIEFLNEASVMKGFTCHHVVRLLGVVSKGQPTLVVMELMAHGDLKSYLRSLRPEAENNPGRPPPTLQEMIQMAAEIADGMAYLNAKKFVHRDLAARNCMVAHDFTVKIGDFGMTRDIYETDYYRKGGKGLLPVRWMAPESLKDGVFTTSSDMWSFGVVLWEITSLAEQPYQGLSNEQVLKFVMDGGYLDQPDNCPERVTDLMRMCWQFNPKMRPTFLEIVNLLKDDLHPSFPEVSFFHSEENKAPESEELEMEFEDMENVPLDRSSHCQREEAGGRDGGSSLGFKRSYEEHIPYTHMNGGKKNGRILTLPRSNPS

[2] = Zucker diabetic fatty rats; cited from earlier work
IR K484E/L552A = target: T2, IR K484E/L552A (Homo sapiens, UniProt P06213, K511E/L579A); assay: IR activation assay in 293 FT cells, IR K484E/L552A double mutant; format: cell-based; conditions: 10 nM for 10 min
T2 construct: expressed in transfected cells; host or cells: 293 FT cells
T2 sequence (P06213 28-1370 isoform P06213-2 K511E/L579A limits assumed): as the sequence (P06213 28-1370 isoform P06213-2 F91A limits assumed) above, with A64F, K484E, L552A counted along it
T2 sequence (P06213 763-1382 partner limits assumed): as the sequence (P06213 763-1382 partner limits assumed) above

[3] = Chronic treatment by osmotic minipump; format: in vivo, mice
From the text: 2-month-old male mice were implanted with osmotic minipump releasing Humulin (0.2 U/day), S597 (0.3 U/day), or S597-S20D (0.3 U/day). […] Hepes, N=7; Humulin, N=8; S597, N=7; S597-S20D, N=4. […] Hepes, N=7; Humulin, N=8; S597, N=9; S597-S20D, N=4. Two-way ANOVA followed by Tukey's multiple comparisons test. […] Mean±SEM. Hepes, N=8; Humulin, N=7; S597, N=9; S597-S20D, N=5. […] Hepes, N=4; Humulin and S597 analogs, N=5. two-tailed Student's t-test. All graphs show Mean±SEM.
To examine the long-term effects of S597 in vivo, C57BL/6J WT mice were implanted with osmotic minipumps releasing either HEPES, Humulin, or mimetics. […] Consistent with previous work, chronic treatment of Humulin increased body weight (FIGS. 11E, 11F).

[4] = target: insulin-like growth factor 1 receptor (IGF1R) (Homo sapiens, UniProt P08069); conditions: previous studies; cited from earlier work
Chain of insulin-like growth factor 1 receptor (IGF1R) (P08069 31-736 limits assumed, species assumed): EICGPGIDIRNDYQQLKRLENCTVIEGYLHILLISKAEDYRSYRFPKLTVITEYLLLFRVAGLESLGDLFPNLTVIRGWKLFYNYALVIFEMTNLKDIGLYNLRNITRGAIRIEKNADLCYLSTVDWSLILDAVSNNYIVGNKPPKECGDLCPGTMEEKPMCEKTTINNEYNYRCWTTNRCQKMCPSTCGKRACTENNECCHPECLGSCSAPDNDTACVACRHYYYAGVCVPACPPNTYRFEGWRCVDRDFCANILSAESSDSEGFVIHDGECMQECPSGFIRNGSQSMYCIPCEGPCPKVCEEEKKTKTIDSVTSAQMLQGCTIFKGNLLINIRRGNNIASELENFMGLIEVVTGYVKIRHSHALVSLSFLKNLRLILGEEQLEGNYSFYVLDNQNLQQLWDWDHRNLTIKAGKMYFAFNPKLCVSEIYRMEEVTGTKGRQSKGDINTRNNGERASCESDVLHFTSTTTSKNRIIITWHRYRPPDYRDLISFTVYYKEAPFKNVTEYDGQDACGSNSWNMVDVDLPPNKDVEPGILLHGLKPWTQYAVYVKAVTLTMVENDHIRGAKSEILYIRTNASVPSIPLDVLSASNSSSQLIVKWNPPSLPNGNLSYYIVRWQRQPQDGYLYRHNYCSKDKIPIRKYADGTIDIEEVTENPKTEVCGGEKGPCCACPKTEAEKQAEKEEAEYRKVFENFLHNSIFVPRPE

MCF7 = assay: Cancer cell proliferation, MCF7; format: cell-based
IR wild-type (WT) = target: T3, IR wild-type (WT) (Homo sapiens, UniProt P06213); assay: IR activation (auto-phosphorylation) assay in 293 FT cells expressing IR WT; format: cell-based
T3 construct: expressed in transfected cells; host or cells: 293 FT cells
T3 sequence (P06213 28-1370 isoform P06213-2 limits assumed): as the sequence (P06213 28-1370 isoform P06213-2 F91A limits assumed) above, with A64F counted along it
T3 sequence (P06213 763-1382 partner limits assumed): as the sequence (P06213 763-1382 partner limits assumed) above
Experimental: The insulin receptor signaling assay was performed as described earlier with some modifications. For the activation assay, the short isoform of human IR in pCS2-MYC was used as described previously. Plasmid transfections into 293 FT cells were performed with Lipofectamin™ 2000 (Invitrogen).
The cells were incubated with the lysis buffer B [50 mM Hepes pH 7.4, 150 mM NaCl, 10% Glycerol, 1% Triton X-100, 1 mM EDTA, 100 mM sodium fluoride, 2 mM sodium orthovanadate, 20 mM sodium pyrophosphate, 0.5 mM dithiothreitol (DTT), 2 mM phenylmethylsulfonyl fluoride (PMSF)] supplemented with complete Protease Inhibitor Cocktail (Roche), PhosSTOP (Sigma), and 25 U/ml turbo nuclease (Accelagen) on ice for 1 hr. After centrifuge at 20,817 g at 4° C. for 10 min, the concentrations of cell lysate were measured using Micro BCA Protein Assay Kit (Thermo Scientific). About 50-60 μg total proteins were analyzed by SDS-PAGE and quantitative Western blotting. The following antibodies were purchased from commercial sources: Anti-IR-pY1150/1151 (WB, 1:1000; 19H6; labeled as pY IR, Cat. #3024), anti-AKT (WB, 1:1000; 40D4, Cat. #2920), anti-pS473 AKT (WB, 1:1000; D9E, Cat. #4060), anti-ERK1/2 (WB, 1:1000; L34F12, Cat. #4696), anti-pERK1/2 (WB, […]; 197G2, Cat. #4377), anti-IRS1-pS616 (WB, 1:1000; C15H5, Cell Signaling, Cat. #3203); anti-IRS1 (WB, 1:1000; A301-158A, Bethyl Laboratory); anti-IR (WB, 1:500, CT-3, Santa Cruz; labeled as IR for primary hepatocytes and MEFs, Cat. #sc-57342); anti-IR (WB, 1:1000; EPR23566-103; labeled as IR for FIG. 31, ab278100, Abcam); anti-Myc (WB, 1:2000; 9E10, Cat. #11667149001, Roche; labeled as IR for 293 FT cells). For quantitative western blots, anti-rabbit immunoglobulin G (IgG) (H+L) (WB, 1:5000; Dylight 800 conjugates, Cat. #5151) and anti-mouse IgG (H+L) (WB, 1:5000; Dylight 680 conjugates, Cat. #5470) (Cell Signaling) were used as secondary antibodies. The membranes were scanned with the Odyssey Infrared Imaging System (Li—COR, Lincoln, NE).

Structure (SMILES): CC[C@H](C)[C@H](NC(=O)[C@H](CCC(N)=O)NC(=O)[C@H](C)NC(=O)[C@H](Cc1c[nH]c2ccccc12)NC(=O)[C@H](CCC(=O)O)NC(=O)[C@H](CCC(=O)O)NC(=O)[C@H](CCC(=O)O)NC(=O)[C@H](CC(C)C)NC(=O)[C@H](CO)NC(C)=O)C(=O)N[C@@H](CCC(=O)O)C(=O)N[C@H]1CSSC[C@@H](C(=O)N2CCC[C@H]2C(=O)N[C@@H](CO)C(=O)N[C@@H](CCC(=O)O)C(=O)N[C@@H](CO)C(=O)N[C@@H](Cc2ccccc2)C(=O)N[C@@H](Cc2ccc(O)cc2)C(=O)N[C@@H](CC(=O)O)C(=O)N[C@@H](Cc2c[nH]c3ccccc23)C(=O)N[C@@H](Cc2ccccc2)C(=O)N[C@@H](CCC(=O)O)C(=O)N[C@@H](CCCNC(=N)N)C(=O)N[C@@H](CCC(N)=O)C(=O)N[C@@H](CC(C)C)C(N)=O)NC(=O)CNC(=O)[C@H](CCCNC(=N)N)NC(=O)CNC(=O)[C@H](Cc2ccc(O)cc2)NC(=O)[C@H](C(C)C)NC(=O)[C@H](CCC(=O)O)NC1=O [S597] (Ac-SLEEEWAQIECEVYGRGCPSESFYDWFERQL-NH2; disulfide 11-18)
- phosphorylation levels of upstream MAPK pathway proteins (e.g., SOS1, SHP2) [1]: significantly reduced
- IR endocytosis / internalization (IR): promoted IR internalization
- IR activation (pY IR) (IR F64A): could still be activated
- blood glucose [2]: lowers
- IR activation (pY IR) (IR K484E/L552A): could not be activated efficiently
- body weight gain [3]: gained less than control mice
- weight gain and fat mass ([3]; FIG. 11, preliminary data): reduces weight gain and fat mass relative to insulin
- activation of IGF1R [4]: does not activate
- cell proliferation (MCF7): did not promote
- IR activation (auto-phosphorylation of IR, pY IR) (IR wild-type (WT); 293 FT cells expressing IR WT, 10 nM for 10 min): as efficiently as insulin
- difference between the A and B isoforms of IR activation (IR wild-type (WT); 293 FT cells expressing IR-A or IR-B, 10 min): no significant difference
